Measurements reported in patent publication US20020197714A1, “Composition and method for increasing cell density in cell cultures infected with lentivirus” (Wyeth, priority 2001, published 2002).

Test system: Fet-J cells chronically infected with feline immunodeficiency virus (FIV)
Assay: Cell density of FIV-infected Fet-J suspension cultures supplemented with antibiotics (trypan blue exclusion on hemacytometer)
Format: cell-based
Conditions: for Cell density Day 1 / Cell density Day 2 / Cell density Day 3 / Cell density Day 4 / Cell density Day 5: antibiotic 30 micrograms/mL in serum free media, planted at 3×10^5 viable cells/mL; for Effect on growth / cell density compared with cultures without antibiotic (in words): antibiotic 30 micrograms/mL, Days 1-5
Method: In this example, Fet-J cells chronically infected with feline immunodeficiency virus (FIV) were grown in serum free media such as modified DMEM:F12 Media or AIM V media, supplemented with 2.5 mg/mL of ALBUMAX®, which is derived from BSA. Cells were grown in suspension in Erlenmeyer flasks on a rotary shaker at 150 rpm at 37° C. Cells were planted at a cell density of 3×10^5 viable cells/mL. Cell densities were determined by trypan blue exclusion on hemacytometer. Gp 120 expression determination was accomplished by enzyme linked immunosorbent assay (ELISA) using anti-FIV Gp 120 monoclonal antibodies. The antibiotics assessed for FIV supplementation included gentamycin, neomycin and polymixin B. Media were spiked with respective antibiotics at a concentration of 30 micrograms/mL. Cell densities were determined on a 24 hour basis by the method described above.

For gentamycin, the “Cell density Day 1” value was 2.4 × 10^5 cell/mL, the “Cell density Day 2” value was 3.2 × 10^5 cell/mL and the “Cell density Day 3” value was 6.5 × 10^5 cell/mL. For the same substance, the “Cell density Day 4” value was 1.1 × 10^6 cell/mL, the “Cell density Day 5” value was 1.1 × 10^6 cell/mL and the “Effect on growth / cell density compared with cultures without antibiotic (in words)” value was “no significant effect”.
With neomycin the “Cell density Day 1” value was 4.7 × 10^5 cell/mL, the “Cell density Day 2” value was 7.8 × 10^5 cell/mL and the “Cell density Day 3” value was 1.2 × 10^6 cell/mL. The “Cell density Day 4” value was 1.3 × 10^6 cell/mL, the “Cell density Day 5” value was 1.8 × 10^6 cell/mL and the “Effect on growth / cell density compared with cultures without antibiotic (in words)” value was “best overall growth and increase in cell densities”.
polymixin B was tested, and the “Cell density Day 1” value was 2.9 × 10^5 cell/mL, the “Cell density Day 2” value was 4.6 × 10^5 cell/mL and the “Cell density Day 3” value was 5.8 × 10^5 cell/mL. The “Cell density Day 4” value was 6.6 × 10^6 cell/mL, the “Cell density Day 5” value was 6.6 × 10^5 cell/mL and the “Effect on growth / cell density compared with cultures without antibiotic (in words)” value was “suppressed cell density”.
